Reference: the supplement of paper PMC10307832

What was measured:
Assay in all cases: relative viability (nuclei count vs DMSO), 5 days (fraction); higher = more cells survive
Dinaciclib = compound: CCc1cnn2c(NCc3ccc[n+]([O-])c3)cc(N3CCCC[C@H]3CCO)nc12 [Dinaciclib]
How it was run: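 Lung cancer cell lines in 1536-well plates were exposed by pinning to five library-drug doses (not always all listed) √10 apart, following an overnight hold at 37 °C. MetaXpress counted Hoechst-stained nuclei from 4× images taken after 5 days without medium change. Viability is the median ratio of treated-well to vehicle-well nuclei across plates. Plates required control CV below 25% and at least one doubling.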

Dinaciclib + Olaparib = compound: CCc1cnn2c(NCc3ccc[n+]([O-])c3)cc(N3CCCC[C@H]3CCO)nc12 [Dinaciclib] + O=C(c1cc(Cc2n[nH]c(=O)c3ccccc23)ccc1F)N1CCN(C(=O)C2CC2)CC1 [Olaparib] (partner 8 µM)
How it was run: (§1)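 Lung cancer cell lines in 1536-well plates got either a single drug or a fixed anchor-drug dose together with five library-drug doses (not always all listed) in √10 steps, by pin tool, on the day after seeding. Nuclei were counted after 5 days, and relative viability is the treated-to-vehicle ratio of nuclei counts. Values are medians of duplicate plates.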

Dinaciclib + Crizotinib = compound: CCc1cnn2c(NCc3ccc[n+]([O-])c3)cc(N3CCCC[C@H]3CCO)nc12 [Dinaciclib] + C[C@@H](Oc1cc(-c2cnn(C3CCNCC3)c2)cnc1N)c1c(Cl)ccc(F)c1Cl [Crizotinib] (partner 1 µM)
How it was run: as §1

Dinaciclib + Alpelisib = compound: CCc1cnn2c(NCc3ccc[n+]([O-])c3)cc(N3CCCC[C@H]3CCO)nc12 [Dinaciclib] + Cc1nc(NC(=O)N2CCC[C@H]2C(N)=O)sc1-c1ccnc(C(C)(C)C(F)(F)F)c1 [Alpelisib] (partner 2 µM)
How it was run: as §1

Dinaciclib + Dasatinib = compound: CCc1cnn2c(NCc3ccc[n+]([O-])c3)cc(N3CCCC[C@H]3CCO)nc12 [Dinaciclib] + Cc1nc(Nc2ncc(C(=O)Nc3c(C)cccc3Cl)s2)cc(N2CCN(CCO)CC2)n1 [Dasatinib] (partner 0.075 µM)
How it was run: as §1

Row | Cell Line | relative viability (Dinaciclib; 0.009487 µM) | relative viability (Dinaciclib; 0.03 µM) | relative viability (Dinaciclib; 0.09487 µM) | relative viability (Dinaciclib; 0.3 µM) | relative viability (Dinaciclib + Olaparib; first compound 0.009487 µM) | relative viability (Dinaciclib + Olaparib; first compound 0.03 µM) | relative viability (Dinaciclib + Olaparib; first compound 0.09487 µM) | relative viability (Dinaciclib + Olaparib; first compound 0.3 µM) | relative viability (Dinaciclib + Crizotinib; first compound 0.009487 µM) | relative viability (Dinaciclib + Crizotinib; first compound 0.03 µM) | relative viability (Dinaciclib + Crizotinib; first compound 0.09487 µM) | relative viability (Dinaciclib + Crizotinib; first compound 0.3 µM) | relative viability (Dinaciclib + Alpelisib; first compound 0.009487 µM) | relative viability (Dinaciclib + Alpelisib; first compound 0.03 µM) | relative viability (Dinaciclib + Alpelisib; first compound 0.09487 µM) | relative viability (Dinaciclib + Alpelisib; first compound 0.3 µM) | relative viability (Dinaciclib + Dasatinib; first compound 0.009487 µM) | relative viability (Dinaciclib + Dasatinib; first compound 0.03 µM) | relative viability (Dinaciclib + Dasatinib; first compound 0.09487 µM) | relative viability (Dinaciclib + Dasatinib; first compound 0.3 µM)
1 | NCI-H2087 | 0.954 | 0.14 | 0.111 | 0.122 | 0.639 | 0.0883 | 0.0953 | 0.112 | 1.3 | 0.136 | 0.128 | 0.13 | 0.843 | 0.144 | 0.121 | 0.116 | 0.808 | 0.0939 | 0.0743 | 0.0752
2 | NCI-H2126 | 1.03 | 0.563 | 0.247 | 0.207 | 0.89 | 0.449 | 0.186 | 0.169 | 1.01 | 0.565 | 0.213 | 0.215 | 0.732 | 0.399 | 0.209 | 0.196 | 0.54 | 0.187 | 0.212 | 0.187
3 | NCI-H2170 | 0.942 | 0.24 | 0.171 | 0.156 | 0.429 | 0.11 | 0.0975 | 0.113 | 0.86 | 0.188 | 0.157 | 0.181 | 0.646 | 0.166 | 0.162 | 0.198 | 0.475 | 0.137 | 0.123 | 0.13
4 | NCI-H2228 | 1.21 | 0.434 | 0.123 | 0.161 | 0.793 | 0.181 | 0.101 | 0.143 | 0.526 | 0.178 | 0.135 | 0.103 | 0.548 | 0.122 | 0.108 | 0.119 | 0.399 | 0.106 | 0.0787 | 0.0912
5 | NCI-H2347 | 1.01 | 0.538 | 0.257 | 0.214 | 0.523 | 0.241 | 0.216 | 0.209 | 0.734 | 0.146 | 0.202 | 0.156 | 0.986 | 0.324 | 0.274 | 0.222 | 0.344 | 0.246 | 0.173 | 0.171
6 | NCI-H2405 | 0.947 | 0.405 | 0.246 | 0.23 | 0.654 | 0.242 | 0.225 | 0.23 | 0.772 | 0.224 | 0.201 | 0.209 | 0.876 | 0.22 | 0.208 | 0.184 | 0.228 | 0.259 | 0.224 | 0.218
7 | NCI-H3122 | 0.979 | 0.182 | 0.115 | 0.102 | 0.579 | 0.0996 | 0.0974 | 0.0928 | 0.253 | 0.127 | 0.145 | 0.13 | 0.489 | 0.157 | 0.119 | 0.15 | 0.616 | 0.0841 | 0.0766 | 0.0827
8 | PC-3 [JPC-3] | 1.05 | 0.92 | 0.4 | 0.266 | 1.09 | 0.57 | 0.321 | 0.288 | 0.953 | 0.799 | 0.232 | 0.198 | 0.99 | 0.899 | 0.362 | 0.21 | 0.991 | 0.978 | 0.465 | 0.194
9 | PC-14 | 0.766 | 0.163 | 0.0662 | 0.0529 | 0.143 | 0.0629 | 0.0502 | 0.0532 | 0.651 | 0.241 | 0.0877 | 0.0668 | 0.947 | 0.515 | 0.0838 | 0.0509 | 0.153 | 0.0351 | 0.0238 | 0.0244
10 | RERF-LC-KJ | 1.01 | 0.29 | 0.176 | 0.156 | 0.466 | 0.166 | 0.155 | 0.154 | 0.885 | 0.179 | 0.131 | 0.122 | 0.826 | 0.41 | 0.154 | 0.161 | 0.36 | 0.192 | 0.15 | 0.159
11 | SK-LU-1 | 1.09 | 0.227 | 0.192 | 0.196 | 0.381 | 0.173 | 0.165 | 0.16 | 0.602 | 0.207 | 0.19 | 0.204 | 0.637 | 0.197 | 0.18 | 0.194 | 0.173 | 0.142 | 0.134 | 0.135
12 | SK-MES-1 | 1.04 | 0.295 | 0.163 | 0.15 | 0.333 | 0.16 | 0.139 | 0.139 | 0.969 | 0.18 | 0.191 | 0.155 | 0.757 | 0.618 | 0.119 | 0.117 | 0.217 | 0.109 | 0.0863 | 0.114
13 | SW 1573 | 0.83 | 0.133 | 0.0862 | 0.081 | 0.224 | 0.0736 | 0.062 | 0.0659 | 0.608 | 0.0718 | 0.066 | 0.0807 | 0.659 | 0.432 | 0.0931 | 0.106 | 0.161 | 0.0578 | 0.0571 | 0.06
14 | UMC-11 | 0.405 | 0.204 | 0.179 | 0.196 | 0.176 | 0.157 | 0.146 | 0.165 | 0.157 | 0.0965 | 0.094 | 0.0987 | 0.285 | 0.147 | 0.135 | 0.158 | 0.209 | 0.175 | 0.142 | 0.144
